Like-named read-outs stand apart in the source and are kept apart here.
How the values were obtained:
[1] = mouse, in vivo
Description: (§3) To mimic advanced (bone metastasis) PCa in ERCC1 variant individuals, B6 and B6.Xpc^−/− mice are injected in left tibia PTEN-CaP2-luc cells. Tumor progression is followed non-invasively in non-castrated mice using our Caliper/Xenogen IVIS-100 imaging system. After tumors emit luminescence >10^5 photons/sec/cm^2, one set of mice is castrated (i.e., to mimic androgen ablation) and the second set is not. […] Mice are imaged every week to monitor tumor progression/regression. When tumors in negative control (saline vehicle treated only) exceed 10^8 photons/sec/cm^2, groups in each set are sacrificed. […] The number and activity of peripheral, lymph node and tumor-associated lymphocytes are isolated and CD4^+ T cells affinity purified and intracellularly and surface stained for flow cytometry analysis of Th1, Th2, Th17, and cell frequency as before. Specifically, the proliferation of purified T lymphocytes after CD3 plus CD28 stimulation with or without FR4 to access Th1/Th2 cell proliferation as before. Along with weekly bioluminescence imaging, blood chemistry and peripherial blood leukocyte subpopulations are monitored to evaluate tumor- or drug-associated toxicities that may be associated with Xpc deficiency.

[2] = system: PC3-luc and PTEN-CaP2-luc tumor; experiment: Example 5 intratibia PC3-luc / PTEN-CaP2-luc tumor model; format: in vivo, mice; details: intravenous
Description: To mimic advanced (bone metastasis) PCa, NIH-III or B6 male mice receiving vitamin D-deficient or normal diets are injected in left tibia with PC3-luc or PTEN-CaP2-luc cells, respectively. […] Microscopic and morphometric analysis determine the significance of treatments on prostate tumor apoptosis and change in the frequency or survival of PCa cells. […] Blood samples are used to determine serum docetaxel and oxaliplatin PK/PD by mass spectrometry.
NIH-III and B6 male mice are purchased from Jackson Laboratories. Animals are housed and maintained in microbial isolator cages under conventional housing conditions at the Morehouse School of Medicine's animal facility. The guidelines proposed by the committee for the Care of Laboratory Animal Resources Commission of Life Sciences—National Research Council are followed to minimize animal pain and distress. Eight to ten week old mice are injected in the right tibia with 10^6 PTEN-P2-luc (matched benign), PTEN-CaP2-luc (prostate adenocarcinoma), or PC3-luc cells. To assess the affects of hormone ablation on cytotoxic drug or PBM nanoparticle susceptibility, another group of mice is castrated after prostate tumor detection.

[3] = system: spontaneous PCa in PBcre4+cPten−/− luc+ and PBcre4+cPten−/− luc+ cav1+ mice; experiment: Example 6 spontaneous prostate tumor model (cPten−/− luc mice); format: in vivo; details: for metastatic lesions: alone or encapsulated
From the text: PBM nanoparticle effects on spontaneous tumor and Treg cell development are examined using cPten^−/−PBcre4^+luc^+ or cPten^−/−PBcre4^+luc^+cav1^+ (castrated or noncastrated) mice. Pten^floxed/floxedluc^+ without the Cre gene, which serve as negative tumor controls, and male cPten^−/− PBcre4^+luc^+ or cPten^−/−PBcre4^+luc^+cav1^+ (castrated or noncastrated) mice are imaged every week during PCa development from murine PIN (6 weeks of age), invasive adenocarcinoma (>9 weeks of age), and metastatic lymph node, lung and possibly bone at 12 weeks of age. After 9 weeks of age, tumors are allowed to progress to a net increase of 10^5 photons/sec/cm^2 from luminescence detected in mice <9 weeks of age. A set of mice is castrated to study androgen-independent hormone refractory PCa and another set is not castrated to further study the progression of PTEN-mediated PCa with androgens. […] Microscopic and morphometric analysis determine the significance of treatments on prostate tumor apoptosis and change in the frequency or survival of secretory luminal, basal, neuroendocrine and proliferating PCa cells. […] The proliferation of purified T lymphocytes is measured after CD3 plus CD28 stimulation (i.e., incubation on antibody-coated plates) with or without FR4 to assess Th1/Th2 cell proliferation. […]
Despite being homozygous for Pten gene deletion, the individual PBcre4^+ cPten^−/− luc^+ and PBcre4^+ cPten^−/− luc^+ cav1^+ mice will have different copies of active luciferase (L) gene. The copy number of trans L genes are determined and confirmed by multiplex polymerase chain reaction amplification and Southern blot analysis to insure the number of L genes responsible for luciferase will not change from experiment to experiment. […]

PTEN-CaP2-luc tumor = experiment: Example 7 PTEN-CaP2-luc tumor in B6 and B6.Xpc−/− mice; format: in vivo
Description: as §3

[4] = cited from earlier work
FR1 = FR1 (Homo sapiens, UniProt P15328); details: read-out: affinity for FR1; cited from earlier work
FR2 = FR2 (Homo sapiens, UniProt P14207); details: read-out: affinity for FR2; cited from earlier work
[5] = system: PrEC (primary prostatic epithelial cells); experiment: PrEC apoptosis, ImageStream (TUNEL/DRAQ5); format: cell-based; details: 20 uM, 1 hour, wash, 48 hours
Description: (§1) DU145 (prostate cancer cell line) and PrEC (primary prostatic epithelial cells) cells were treated with cisplatin solution or cisplatin-containing and cancer cell-binding peptides (I, II, III, and IV)- or folate-conjugated polycaprolactone-coated PBM nanoparticles, or uncoated nanoparticles. […] Apoptotic cells were identified using two standard image based features from the IDEAS package: Area and Spot Small Total. Condensed apoptotic nuclei have lower nuclear area value as compared to live cells.

[6] = system: MDA-MB-231-Luc xenografts; experiment: tumor regression in MDA-MB-231-luc tumor-bearing mice; format: in vivo; details: 8 mg/kg/week, intravenous injection
[7] = design: species or system mice; details: mouse, in vivo
Description: Serum is collected at sacrifice and urea N2, creatine, P, Ca, Na, K, Cl, bicarbonate, alkaline phosphatase, alanine transaminase (ALT), aspartate aminotransferase (AST), creatine kinase (CK), cholesterol, total bilirubin, total protein, albumin, globulin, albumin/globulin ratio, glucose and amylase are measured.

[8] = system: BrCa cells (MCF-7, MDA-MB-231, and 4T1); experiment: BrCa cell death / apoptosis in culture; format: cell-based; details: 20 μM, after 24 hr of culture
From the text: (§2) The folate coated PBM nanoparticles are further loaded with docetaxel, carboplatin, or cisplatin. […] However, PBM nanoparticles containing 10× less chemotherapeutic agent were taken up and induced the same level of BrCa cell apoptosis as cisplatin, docetaxel, or carboplatin solution, respectively, but not primary breast epithelial cells. […] Accordingly, the novel PBM nanoparticles of the present application enhance BrCa therapy efficacy, reduce toxicities, and increase breast tumor immunity.

PC3-luc tumor = experiment: tumor regression in PC3-luc tumor-bearing mice; format: in vivo; details: 8 mg/kg/week, intravenous injection
[9] = system: normal (primary) breast epithelial cells; experiment: normal breast epithelial cell death / apoptosis in culture; format: cell-based; details: 20 μM, after 24 hr of culture
From the text: as §2

[10] = system: DU145 (prostate cancer cell line); experiment: DU145 apoptosis, ImageStream (TUNEL/DRAQ5); format: cell-based; details: 20 uM, 1 hour, wash, 48 hours
Description: as §1

[11] = system: normal prostatic epithelial cells (PrEC and RWPE-1); experiment: normal prostatic epithelial cell death in vitro; format: cell-based; details: 20 μM
[12] = system: PCa cells (PC3 and PTEN-CaP2); experiment: PCa cell death / apoptosis in vitro; format: cell-based, human; mouse; details: 20 μM
[13] = Example 7 systemic toxicities in B6 and B6.Xpc−/− mice; details: B6.Xpc−/− mice compared to B6 mice
Description: as §3

[14] = optimal dose 10 mg/kg/week, both B6 and B6.Xpc−/− mice

FR2, sequence (P14207 17-230): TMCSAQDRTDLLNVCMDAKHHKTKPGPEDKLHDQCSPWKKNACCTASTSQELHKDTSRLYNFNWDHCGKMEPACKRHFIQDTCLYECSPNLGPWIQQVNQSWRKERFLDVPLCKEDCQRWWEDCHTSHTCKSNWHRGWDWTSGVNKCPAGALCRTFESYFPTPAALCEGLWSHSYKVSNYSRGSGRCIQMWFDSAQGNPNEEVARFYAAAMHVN
FR1, sequence (P15328 25-234): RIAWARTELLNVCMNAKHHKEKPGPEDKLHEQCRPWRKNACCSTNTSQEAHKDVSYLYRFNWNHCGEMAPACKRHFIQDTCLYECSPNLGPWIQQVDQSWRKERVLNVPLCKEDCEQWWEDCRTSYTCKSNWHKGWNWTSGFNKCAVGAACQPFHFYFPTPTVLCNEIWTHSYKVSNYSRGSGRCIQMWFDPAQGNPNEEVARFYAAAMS

With `CC(=O)O[C@@]12CO[C@@H]1C[C@H](O)[C@@]1(C)C(=O)[C@H](O)C3=C(C)[C@@H](OC(=O)[C@H](O)[C@@H](NC(=O)OC(C)(C)C)c4ccccc4)C[C@@](O)([C@@H](OC(=O)c4ccccc4)[C@H]21)C3(C)C` [docetaxel] the “toxicities (elevated AST & ALT, hypocalcemia and hypoglycemia)” value [1] was “significantly higher toxicities”, the tumor regression ([2]; optimal dose 10 mg/kg/week) was “tumor regression” and the tumor regression ([2]; suboptimal dose 0.1 mg/kg/week) was “not suboptimal”. The metastatic lesions [3] was “fewer metastatic lesions”, the tumor regression (PTEN-CaP2-luc tumor; [14]) was “tumor regression” and the tumor regression (PTEN-CaP2-luc tumor; suboptimal dose 0.1 mg/kg/week) was “not suboptimal”.
In the case of `COc1cc(/C=C/C(=O)CC(=O)/C=C/c2ccc(O)c(OC)c2)ccc1O` [Free curcumin, diferuloylmethane], the solubility in water [4] is listed as “completely insoluble in water”.
For `CN1c2c(nc(N)[nH]c2=O)NC[C@@H]1CNc1ccc(C(=O)N[C@@H](CCC(=O)O)C(=O)O)cc1` [6S 5-methyltetrahydrofolate], the Kd (FR1) is given as 55 nM and the Kd (FR2) is given as 1 nM.
For `[NH2][Pt]([NH2])([Cl])[Cl]` [Cisplatin solution, cisplatin], the “apoptosis of PrEC cells” value [5] was “apoptosis of both DU145 and PrEC cells”, the tumor regression [6] was “significant (and similar) tumor regression” and the Albumin [7] was 4.2 ± 0.6 g/dL. For the same compound, the Albumin/Globulin ratio [7] was 4.22 ± 2.41, the “Alk Phos” value [7] was 160 ± 34.64 U/L and the Amylase [7] was 2062 ± 371.44 U/L. For the same compound, the Bicarbonate [7] was 10.2 ± 1.04 mmol/fL, the CK [7] was 3975 ± 45 U/L and the Calcium [7] was 1.2 ± 0 mg/dL. For the same compound, the Cholestrol [7] was 84 ± 10.39 mg/dL, the Cl [7] was 106 ± 3.46 mEq/l and the Creatinin [7] was 0.8 ± 0.35 mg/dL. It also gave a Globulins [7] of 1.2 ± 0.6 g/dL, a Glucose [7] of 52 ± 17.32 mg/dL and a K [7] of 9.2 ± 012 mEg/l. For the same compound, the Na [7] was 152 ± 3.46 mEq/l, the Phosphorus [7] was 72 ± 0 mg/dL and the “Total Bilirubin” value [7] was 0.6 ± 0 mg/dL. For the same compound, the Total protein [7] was 5 ± 0.35 g/dL, the “Urea N2” value [7] was 36 ± 0 mg/dL and the cell death [8] was over 90%. For the same compound, the tumor regression (PC3-luc tumor) was “significant (and similar) tumor regression”, the cell death [9] was over 90% and the “apoptosis of DU145 cells” value [10] was “apoptosis of both DU145 and PrEC cells”. For the same compound, the cell death [11] was over 90% and the cell death [12] was over 90%.
With `O=C1[O][Pt]2([NH][C@@H]3CCCC[C@H]3[NH]2)[O]C1=O` [oxaliplatin] the tumor regression ([2]; optimal dose 10 mg/kg/week) was “tumor regression”, the tumor regression ([2]; suboptimal dose 0.1 mg/kg/week) was “not suboptimal” and the “toxicities (elevated AST & ALT, hypocalcemia and hypoglycemia)” value [13] was “significantly higher toxicities”. The metastatic lesions [3] was “fewer metastatic lesions”, the neuroendocrine differentiation ([3]; mouse, in vivo) was “reduced” and the tumor regression (PTEN-CaP2-luc tumor; [14]) was “tumor regression”. The tumor regression (PTEN-CaP2-luc tumor; suboptimal dose 0.1 mg/kg/week) was “not suboptimal”.

Reference: patent US20130045162A1, “DELIVERY SYSTEM FOR SPECIFICALLY TARGETING CANCER CELLS AND METHOD OF USE THEREOF” (MOREHOUSE SCHOOL OF MEDICINE, priority 2011, published 2013)
